Laboratory results: US6262053A, “Melamine derivatives as potent anti-cancer agents” (Parker Hughes Institute, priority 1999, dated 2001)
Like-named read-outs stand apart in the source and are kept apart here.

Legend:
Type in all cases: cell-based
NALM-6 leukemia cells = assay: MTT cytotoxicity assay, NALM-6 leukemia cells; conditions: Homo sapiens, 24-36 hours at 37° C.
Method: (§1) Cytotoxicity of various compounds against tumor cells was performed using the MTT (3-[4,5-dimethylthiazol-2-yl]-2,5-diphenyl tetrazolium bromide) assay (Boehringer Mannheim Corp., Indianapolis, Ind.). Unless otherwise specified, all cell lines were obtained from the American Type Culture Collection (ATCC). Briefly, exponentially growing cells were seeded into a 96-well plate at a density of 2.5×10^4 cells/well and incubated for 36 hours at 37° C. prior to drug exposure. On the day of treatment, culture medium was carefully aspirated from the wells and replaced with fresh medium containing WHI-P239 at concentrations ranging from 0.1 to 250 μM. Triplicate wells were used for each treatment.
(§2) Human leukemic cell lines (NALM-6, MOLT-3), human breast tumor cells (BT20), prostate cancer cells (PC3), and glioblastoma cells (U373) were obtained from the American Type Culture Collection and maintained as a continuous cell line in Dulbecco's modified Eagles's medium supplemented with 10% fetal bovine serum and antibiotics.
(§3) The cells were incubated with the various compounds for 24-36 hours at 37° C. in a humidified 5% CO2 atmosphere. To each well, 10 μl of MTT (0.5 mg/ml final concentration) was added and the plates were incubated at 37° C. for 4 hours to allow MTT to form formazan crystals by reacting with metabolically active cells. The formazan crystals were solubilized overnight at 37° C. in a solution containing 10% SDS in 0.01 M HCl. The absorbence of each well was measured in a microplate reader (Labsystems) at 540 nm and a reference wavelength of […]. To translate the OD540 values into the number of live cells in each well, the OD540 values were compared to those on standard OD540 -versus-cell number curves generated for each cell line. The percent survival was calculated using the formula shown below. [formula]

U373 glioblastoma cells = assay: MTT cytotoxicity assay, U373 glioblastoma (brain tumor) cells; conditions: Homo sapiens, U373 MG, 24-36 hours at 37° C.
Method: as §1, §2, §3

[1] = test system: PC-3 prostate cancer cells; assay: MTT cytotoxicity assay, PC-3 prostate cancer cells; conditions: 24-36 hours at 37° C.
Method: as §1, §2, §3

[2] = test system: BT-20 breast cancer cells; assay: MTT cytotoxicity assay, BT-20 breast cancer cells; conditions: Homo sapiens, 24-36 hours at 37° C.
Method: as §1, §2, §3

Question: How did the IC50 (NALM-6 leukemia cells; read-out: IC50 NALM-6 Leukemia) turn out when `Oc1ccc(Nc2nc(Nc3ccc(O)cc3)nc(Nc3ccc(O)cc3)n2)cc1` [WHI-P199, 2,4,6-Tri(4'-hydroxylphenyl)-amino-1,3,5-triazine] was run?
Answer: > 250 µM

Question: And the IC50 (U373 glioblastoma cells)?
Answer: > 250 µM

Question: What about the IC50 [1] of the same compound?
Answer: 221 µM

Question: What about the IC50 [2] of the same compound?
Answer: 240 µM

Question: Which results are given for `Oc1c(Br)cc(Nc2nc(Nc3cc(Br)c(O)c(Br)c3)nc(Nc3cc(Br)c(O)c(Br)c3)n2)cc1Br` [WHI-P200, 2,4,6-Tri(3',5'-dibromo-4'-hydroxylphenyl)-amino-1,3,5-triazine]?
Answer: IC50 (NALM-6 leukemia cells; read-out: IC50 NALM-6 Leukemia): 10.1 µM; IC50 (U373 glioblastoma cells): > 250 µM; IC50 [1]: 64.5 µM; IC50 [2]: 27.1 µM

Question: With `Oc1ccccc1Nc1nc(Nc2ccccc2O)nc(Nc2ccccc2O)n1` [WHI-P205, 2,4,6-Tri(2'-hydroxylphenyl)-amino-1,3,5-triazine] as the compound, how does the IC50 (NALM-6 leukemia cells; read-out: IC50 NALM-6 Leukemia) read?
Answer: 21.5 µM

Question: And the IC50 (U373 glioblastoma cells)?
Answer: 224 µM

Question: And the IC50 [1]?
Answer: 102 µM

Question: What about the IC50 [2] of the same compound?
Answer: 108 µM

Question: With `Brc1cccc(Nc2nc(Nc3cccc(Br)c3)nc(Nc3cccc(Br)c3)n2)c1` [WHI-P206, 2,4,6-Tri(3'-bromophenyl)-amino-1,3,5-triazine] as the compound, how does the IC50 (NALM-6 leukemia cells; read-out: IC50 NALM-6 Leukemia) read?
Answer: > 250 µM

Question: What about the IC50 (U373 glioblastoma cells) of the same compound?
Answer: > 250 µM

Question: And the IC50 [1]?
Answer: > 250 µM

Question: What about the IC50 [2] of the same compound?
Answer: > 250 µM

Question: What does the source list for `Oc1cccc(Nc2nc(Nc3cccc(O)c3)nc(Nc3cccc(O)c3)n2)c1` [WHI-P233, 2,4,6-Tri(3'-hydroxylphenyl)-amino-1,3,5-triazine]?
Answer: IC50 (NALM-6 leukemia cells; read-out: IC50 NALM-6 Leukemia): 5.1 µM; IC50 (NALM-6 leukemia cells; leukemia cells, read-out: IC50 antileukemic potency (unit printed EM)): 5.1 µM; IC50 (U373 glioblastoma cells): 104 µM; IC50 [1]: 45.1 µM; IC50 [2]: 66.1 µM

Question: How did the IC50 (NALM-6 leukemia cells; read-out: IC50 NALM-6 Leukemia) turn out when `Oc1c(Cl)cc(Nc2nc(Nc3cc(Cl)c(O)c(Cl)c3)nc(Nc3cc(Cl)c(O)c(Cl)c3)n2)cc1Cl` [WHI-P239, 2,4,6-Tri(3',5'-dichloro-4'-hydroxylphenyl)-amino-1,3,5-triazine] was run?
Answer: 9.8 µM

Question: What about the IC50 (U373 glioblastoma cells) of the same compound?
Answer: 155 µM

Question: And the IC50 [1]?
Answer: 31.5 µM

Question: And the IC50 [2]?
Answer: 13.2 µM
